Like-named read-outs stand apart in the source and are kept apart here.
Tests used:
[1] = cited from earlier work
[2] = system: patients with opiate dependence; assay: Clinical detoxification of opiate-dependent patients with decreasing buprenorphine troche doses (microdose protocol)

In the case of `COC12CCC3(CC1C(C)(O)C(C)(C)C)C1Cc4ccc(O)c5c4C3(CCN1CC1CC1)C2O5` [Buprenorphine, (2S)-2-[(−)-(5R,6R,7R,14S)-9α-cyclopropylmethyl-4,5-epoxy-6,14-ethanomorphinan-7-yl]-3-hydroxy-6-methoxy-3,3-dimethylbutan-2-ol], the mean half-life ([1]; in vivo) is given as 35 to 37 h, the “elimination half-life (mean)” value ([1]; mean) is given as 37 h and the first-pass metabolism ([1]; oral administration) is given as “very high”. The elimination half-life ([1]; range) was 20 to 73 h, the mean half-life ([1]; taken sublingually) was 35 to 37 h and the “withdrawal symptoms after dose reduction” value ([2]; 2.0 mg dose reduction, experienced or chronic user of narcotic type medications) was “significant withdrawal symptoms”. The “time to return of withdrawal symptoms” value ([2]; cut-off of 2.0 mg) was at most 24 h, the treatment outcome ([2]; fractional dose of 1.5 mg after a final 3.0 mg dose) was “unsuccessful” and the “patients transitioned safely and in a symptomless manner from buprenorphine to the blocker Naltrexone” value ([2]; increased number of sub 0.1 mg doses, treatment three or more months) was about 100%. The “completion rate (completion means a narcotic free state)” value ([2]; microdose methods over an extended period, months rather than days or weeks) was “approximately 96%”, the “duration of withdrawal symptoms” value ([2]; previous treatment regimens, doses 8.0 to 3.0 mg) was “three to five days” and the “withdrawal symptoms reported by patients” value ([2]; serial doses of 0.25 mg) was “perceptible and, in some cases, intolerable withdrawal symptoms”. The success rate ([2]; when taken to completion of the dose reduction schedule) was “greater than 90%”.

With `O=C1CC[C@@]2(O)[C@H]3Cc4ccc(O)c5c4[C@@]2(CCN3CC2CC2)[C@H]1O5` [Naltrexone] the “return of withdrawal symptoms after the end of buprenorphine treatment” value ([2]; Naltrexone administered at 12.5 mg) was “up to five days”.

With `CN1C(=O)CN=C(c2ccccc2)c2cc(Cl)ccc21` [Diazepam] the “observed effect in the early phase of withdrawal” value ([2]; outpatients) was “too dis-inhibiting”.
